According to paper PMC5614982, “Impact of Gastric H^+/K^+-ATPase rs2733743 on the Intragastric pH-Values of Dexlansoprazole Injection in Chinese Subjects” (Frontiers in Pharmacology, 2017):
Marks after values point to notes of the source that are not given here.

Test system: intragastric pH
Test: 24-h intragastric pH monitoring after single intravenous dexlansoprazole in healthy Chinese subjects
Assay type: in vivo, human
Conditions: 30 mg iv
Description: Dexlansoprazole injection (30 mg per vial) used in the PK and PD study was manufactured by Nanjing Yoko Pharma Co., Ltd. (Nanjing, China). Subjects received an intravenous infusion of 20 or 30 mg dexlansoprazole injection in sterile saline solution (100 mL/h, 60 min). The study drug was administrated with an infusing pump (SA213, Lifepum, Beijing, China) and given through an intravenous catheter in the antecubital vein opposite to the one from which blood samples were taken.
An ambulatory pH recorder (Orion II, MMS, USA) with a disposable pH catheter (VersaFlex, MMS, USA) was used to monitor intragastric pH. The electrode was placed in water for at least 10 min and then calibrated using standard buffer solutions (pH 1.07 and 7.01) before intubation. Both calibration and intubation processes were conducted under the guidance of MMS Virtual Instructor Program. The catheter, trans nasally placed 10 cm under the lower esophageal sphincter, was identified by a sharp decrease in pH (Wang et al., [2010], [2011]). Subjects were intubated on baseline and the day of dosing at about 7:30 a.m., and the intragastric pH data were recorded continuously for 24 h from 8:00 a.m. Intragastric pH was sampled every second, and the data were stored in a MMS Database program (MMS, USA). The PD parameters including Median (pH), Mean (pH), TpH≥3 (%), TpH≥4 (%), TpH≥6 (%), TpH≥6, and AUC^pH−t were analyzed by the MMS Database program.
Median (pH) and mean (pH) were well-investigated in most studies, and the percentage time of pH ≥ 4 (or pH ≥ 4 holding time ratio) was the benchmark for predicting clinical efficacy of PPIs in treating acid-related diseases (Metz et al., [2009]). Novel parameter TpH≥6 (time to first gastric pH ≥ 6, min) and AUCτ 1-τ 2pH-t (area under pH-time curve from τ1 to τ2, pH·s) were defined to evaluate the velocity and extent of pharmacodynamics with more accuracy. All parameters were calculated and compared according to time periods of 0–24, 0–4, 4–10, 10–14, and 14–24 h post dosing.
The parameter AUCτ 1-τ 2pH-t was calculated as follows:
Where t represented the time duration measured by seconds, AUCτ 1-τ 210-t was the area between the pH line = 10 and the pH-time curve, which was generated by the MMS software.
Baseline-adjusted PD parameters were calculated as follows: for example, ΔAUC^pH−t = AUC^pH−t − AUC^pH−tbaseline, ΔMean (pH) = Mean (pH) − Mean (pH)^baseline, and ΔMedian (pH) = Median (pH) − Median (pH)^baseline.

[1] = CYP2C19 EMs, H+/K+-ATPase WT (n = 6), 0–4 h
[2] = CYP2C19 EMs, H+/K+-ATPase WT (n = 6), 0–24 h
[3] = CYP2C19 EMs, H+/K+-ATPase WT (n = 6), 14–24 h
[4] = H+/K+-ATPase Het (n = 10), 0–4 h

Structure (SMILES): Cc1c(OCC(F)(F)F)ccnc1C[S@@+]([O-])c1nc2ccccc2[nH]1 [dexlansoprazole]
- Mean (pH) [1]: 6.1 ± 0.5 pH
- Median (pH) [1]: 6.9 ± 0.5 pH
- TpH≥3(%) [1]: 80.8 ± 8.4%
- TpH≥4(%) [1]: 76.4 ± 9.4%
- TpH≥6(%) [1]: 66.9 ± 14.8%
- ΔMean (pH) [1]: 3.4 ± 0.7 pH
- ΔMedian (pH) [1]: 4.5 ± 0.7^b pH
- ΔTpH≥3(%) [1]: 51.7 ± 34.6%
- ΔTpH≥4 (%) [1]: 58.6 ± 15.0%
- ΔTpH≥6(%) [1]: 60.9 ± 12.6%
- Mean (pH) [2]: 5.6 ± 1.1 pH
- Median (pH) [2]: 5.8 ± 1.4 pH
- TpH≥3(%) [2]: 79.8 ± 16.2%
- TpH≥4(%) [2]: 73.1 ± 20.0%
- TpH≥6(%) [2]: 53.5 ± 23.6%
- ΔMean (pH) [2]: 2.4 ± 0.8^c pH
- ΔMedian (pH) [2]: 3.2 ± 1.0 pH
- ΔTpH≥3(%) [2]: 35.3 ± 10.3^c %
- ΔTpH≥4 (%) [2]: 41.0 ± 16.6^c %
- ΔTpH≥6(%) [2]: 43.2 ± 18.2%
- Mean (pH) [3]: 4.8 ± 1.8 pH
- Median (pH) [3]: 4.3 ± 1.7 pH
- TpH≥3(%) [3]: 62.4 ± 35.6%
- TpH≥4(%) [3]: 52.1 ± 41.3%
- TpH≥6(%) [3]: 34.4 ± 28.0%
- ΔMean (pH) [3]: 1.6 ± 0.9^c pH
- ΔMedian (pH) [3]: 2.3 ± 1.7 pH
- ΔTpH≥3(%) [3]: 38.5 ± 26.5^c %
- ΔTpH≥4 (%) [3]: 29.5 ± 29.9%
- ΔTpH≥6(%) [3]: 14.1 ± 12.6^c %
- Mean (pH) (CYP2C19 IM (n = 10), 0–4 h): 5.6 ± 2.2 pH
- Median (pH) (CYP2C19 IM (n = 10), 0–4 h): 6.2 ± 2.8 pH
- TpH≥3(%) (CYP2C19 IM (n = 10), 0–4 h): 66.9 ± 33.4%
- TpH≥4(%) (CYP2C19 IM (n = 10), 0–4 h): 63.6 ± 36.2%
- TpH≥6(%) (CYP2C19 IM (n = 10), 0–4 h): 56.6 ± 36.6%
- ΔMean (pH) (CYP2C19 IM (n = 10), 0–4 h): 3.3 ± 1.7 pH
- ΔMedian (pH) (CYP2C19 IM (n = 10), 0–4 h): 4.3 ± 2.5 pH
- ΔTpH≥3(%) (CYP2C19 IM (n = 10), 0–4 h): 56.9 ± 27.1%
- ΔTpH≥4 (%) (CYP2C19 IM (n = 10), 0–4 h): 56.2 ± 31.5%
- ΔTpH≥6(%) (CYP2C19 IM (n = 10), 0–4 h): 51.3 ± 33.5%
- Mean (pH) (CYP2C19 IM (n = 10), 0–24 h): 6.6 ± 0.9 pH
- Median (pH) (CYP2C19 IM (n = 10), 0–24 h): 7.0 ± 0.8 pH
- TpH≥3(%) (CYP2C19 IM (n = 10), 0–24 h): 89.6 ± 9.2%
- TpH≥4(%) (CYP2C19 IM (n = 10), 0–24 h): 85.7 ± 10.6%
- TpH≥6(%) (CYP2C19 IM (n = 10), 0–24 h): 67.8 ± 13.4%
- ΔMean (pH) (CYP2C19 IM (n = 10), 0–24 h): 3.7 ± 0.6 pH
- ΔMedian (pH) (CYP2C19 IM (n = 10), 0–24 h): 4.9 ± 0.8 pH
- ΔTpH≥3(%) (CYP2C19 IM (n = 10), 0–24 h): 65.3 ± 6.2%
- ΔTpH≥4 (%) (CYP2C19 IM (n = 10), 0–24 h): 70.0 ± 8.3%
- ΔTpH≥6(%) (CYP2C19 IM (n = 10), 0–24 h): 56.7 ± 6.4%
- Mean (pH) (CYP2C19 IM (n = 10), 14–24 h): 6.1 ± 0.9 pH
- Median (pH) (CYP2C19 IM (n = 10), 14–24 h): 6.2 ± 1.2 pH
- TpH≥3(%) (CYP2C19 IM (n = 10), 14–24 h): 88.9 ± 8.9%
- TpH≥4(%) (CYP2C19 IM (n = 10), 14–24 h): 80.9 ± 12.6%
- TpH≥6(%) (CYP2C19 IM (n = 10), 14–24 h): 50.7 ± 13.6%
- ΔMean (pH) (CYP2C19 IM (n = 10), 14–24 h): 2.7 ± 0.9 pH
- ΔMedian (pH) (CYP2C19 IM (n = 10), 14–24 h): 3.7 ± 0.9 pH
- ΔTpH≥3(%) (CYP2C19 IM (n = 10), 14–24 h): 60.8 ± 19.5%
- ΔTpH≥4 (%) (CYP2C19 IM (n = 10), 14–24 h): 55.6 ± 17.3%
- ΔTpH≥6(%) (CYP2C19 IM (n = 10), 14–24 h): 27.8 ± 14.7^c %
- Mean (pH) (CYP2C19 PM (n = 7), 0–4 h): 5.2 ± 1.1 pH
- Median (pH) (CYP2C19 PM (n = 7), 0–4 h): 5.9 ± 1.8 pH
- TpH≥3(%) (CYP2C19 PM (n = 7), 0–4 h): 73.7 ± 10.5%
- TpH≥4(%) (CYP2C19 PM (n = 7), 0–4 h): 64.8 ± 15.2%
- TpH≥6(%) (CYP2C19 PM (n = 7), 0–4 h): 47.7 ± 24.1%
- ΔMean (pH) (CYP2C19 PM (n = 7), 0–4 h): 3.5 ± 0.9 pH
- ΔMedian (pH) (CYP2C19 PM (n = 7), 0–4 h): 4.2 ± 1.8 pH
- ΔTpH≥3(%) (CYP2C19 PM (n = 7), 0–4 h): 69.8 ± 9.5%
- ΔTpH≥4 (%) (CYP2C19 PM (n = 7), 0–4 h): 63.2 ± 13.7%
- ΔTpH≥6(%) (CYP2C19 PM (n = 7), 0–4 h): 47.3 ± 23.7%
- Mean (pH) (CYP2C19 PM (n = 7), 0–24 h): 6.5 ± 1.1 pH
- Median (pH) (CYP2C19 PM (n = 7), 0–24 h): 6.7 ± 1.2 pH
- TpH≥3(%) (CYP2C19 PM (n = 7), 0–24 h): 89.0 ± 13.3%
- TpH≥4(%) (CYP2C19 PM (n = 7), 0–24 h): 85.0 ± 16.4%
- TpH≥6(%) (CYP2C19 PM (n = 7), 0–24 h): 72.2 ± 19.8%
- ΔMean (pH) (CYP2C19 PM (n = 7), 0–24 h): 4.1 ± 1.1^a pH
- ΔMedian (pH) (CYP2C19 PM (n = 7), 0–24 h): 4.8 ± 1.2 pH
- ΔTpH≥3(%) (CYP2C19 PM (n = 7), 0–24 h): 68.6 ± 15.3^a %
- ΔTpH≥4 (%) (CYP2C19 PM (n = 7), 0–24 h): 74.6 ± 16.6^a %
- ΔTpH≥6(%) (CYP2C19 PM (n = 7), 0–24 h): 68.8 ± 17.9^a %
- Mean (pH) (CYP2C19 PM (n = 7), 14–24 h): 6.1 ± 1.4 pH
- Median (pH) (CYP2C19 PM (n = 7), 14–24 h): 5.9 ± 2.0 pH
- TpH≥3(%) (CYP2C19 PM (n = 7), 14–24 h): 87.3 ± 22.7%
- TpH≥4(%) (CYP2C19 PM (n = 7), 14–24 h): 82.9 ± 26.0%
- TpH≥6(%) (CYP2C19 PM (n = 7), 14–24 h): 64.4 ± 25.6^a %
- ΔMean (pH) (CYP2C19 PM (n = 7), 14–24 h): 3.8 ± 1.3^a pH
- ΔMedian (pH) (CYP2C19 PM (n = 7), 14–24 h): 4.1 ± 1.9^a pH
- ΔTpH≥3(%) (CYP2C19 PM (n = 7), 14–24 h): 76.9 ± 20.0^a %
- ΔTpH≥4 (%) (CYP2C19 PM (n = 7), 14–24 h): 75.9 ± 22.4^a %
- ΔTpH≥6(%) (CYP2C19 PM (n = 7), 14–24 h): 59.0 ± 24.6^a^,^b %
- Mean (pH) [4]: 5.3 ± 2.0 pH
- Median (pH) [4]: 5.5 ± 2.5 pH
- TpH≥3(%) [4]: 70.6 ± 25.1%
- TpH≥4(%) [4]: 64.8 ± 28.6%
- TpH≥6(%) [4]: 50.5 ± 38.4%
- ΔMean (pH) [4]: 3.0 ± 1.2 pH
